Measurements reported in patent US8193149B2, “Use of Peptide YY, alone or in combination with glucagon-like peptide, for use in medicine” (mondoBIOTECH Laboratories AG, priority 2007, dated 2012).
No end group written: not given here.

Assays:
HCMV strain AD169 = assay: HCMV plaque formation assay in MRC-5 cells; type: cell-based
HIV-1IIIB = assay: HIV-1 antiviral assay in CEM-SS cells (MTS readout); type: cell-based
[1] = test system: hepatitis B virus (HBV) ayw strain in HepG2-2.2.15 cells; assay: HBV experimental assay system, secreted HBV DNA by TaqMan PCR; type: cell-based; conditions: single peptide, 10 micrograms per ml; HepG2-2.2.15, six days
Experimental: HepG2-2.2.15 is a stable cell line containing the hepatitis B virus (HBV) ayw strain genome (ATCC Cat. No. CRL-11997). […] After 16-24 hours the confluent monolayer of HepG2-2.2.15 cells was washed and the medium was replaced with complete medium containing test peptides—10 micrograms per ml—in duplicate. […] Three days later the culture medium was replaced with fresh medium containing the peptides. Six days following the initial administration of the peptides, the cell culture supernatants was collected, treated with pronase and DNAse and then used in a real-time quantitative TaqMan PCR assay. The PCR-amplified HBV DNA was detected in real-time by monitoring increases in fluorescence signals that result from the exonucleolytic degradation of a quenched fluorescence probe molecule that hybridizes to the amplified HBV DNA. For each PCR amplification, a standard curve was simultaneously generated using dilutions of purified HBV DNA. Antiviral activity was calculated from the reduction in HBV DNA levels (% virus control).

spleen cells = assay: Th1/Th2 cytokine profiling assay; type: cell-based, Balb/c mice; conditions: 10 micrograms per ml; Ovalbumin restimulation, 72 hours
[2] = test system: Primary Human endothelial cells (HUVEC); assay: Endothelial cell migration assay; type: cell-based; conditions: single peptide, 10 micrograms per ml, 22 hours
HUVEC = assay: Endothelial tube formation assay; type: cell-based, human; conditions: single peptide, 10 micrograms per ml, 20 hours
Experimental: The endothelial tube formation assay is based on the ability of endothelial cells to form three-dimensional capillary-like tubular structures when cultured on a gel of basement membrane extract. […] Pre-labeled HUVEC with Calcein AM were seeded in a 96-well culture plate coated with extracellular metrix (Chemicon international Cat. ECM625) and treated with test peptides—10 micrograms per ml—in full growth medium. Positive control was vehicle only. The endothelial cells were allowed to form tubes foe 20 hours and were then examined under an inverted fluorescent microscope. Duplicate wells for each treatment were photographed and quantitatevily analyzed for an average tubule length using image analysis software ImageProPlus. Raw data were expressed as average tubule lenghs in pixels ± standard deviation. Statistic p values were computed using the Student's t-test.

## Nc1nc(O)c2ncn(COC(CO)CO)c2n1 [Ganciclovir, reference compound]
HCMV strain AD169; HCMV AD169
  antiviral activity of positive control compound (HCMV): expected levels of antiviral activity

## CC(C)(C)NC(=O)[C@@H]1CN(Cc2cccnc2)CCN1C[C@@H](O)C[C@@H](Cc1ccccc1)C(=O)N[C@H]1c2ccccc2C[C@H]1O [indinavir]
HIV-1IIIB
  antiviral activity of positive control compounds (HIV-1): expected levels of antiviral activity

## Cc1cn([C@H]2C[C@H](N=[N+]=[N-])[C@@H](CO)O2)c(=O)[nH]c1=O [AZT]
HIV-1IIIB
  antiviral activity of positive control compounds (HIV-1): expected levels of antiviral activity

## His-Asp-Glu-Phe-Glu-Arg-His-Ala-Glu-Gly-Thr-Phe-Thr-Ser-Asp-Val-Ser-Ser-Tyr-Leu-Glu-Gly-Gln-Ala-Ala-Lys-Glu-Phe-Ile-Ala-Trp-Leu-Val-Lys-Gly-Arg-Gly-OH (HDEFERHAEGTFTSDVSSYLEGQAAKEFIAWLVKGRG-OH; listed as Homo sapiens) [Peptide 2, commercially available known peptide]
[1]
  inhibition of HBV replication as compared to the virus control infection: 62.3%
HCMV strain AD169; 10 micrograms per ml, 7-10 days
  inhibition of HCMV plaque formation as compared to the virus control: did not inhibit
Spleen cells
  IFNγ spleen cells; TH1 response (% of control): 78.0 % of control
  IL-2 spleen cells (% of control): 163.4 % of control
  IL-4 spleen cells; TH2 response (% of control): 135.2 % of control
  IL-5 spleen cells; TH2 response (% of control): 121.7 % of control
  TNF-a spleen cells; TH1 response (% of control): 145.1 % of control
[2]
  inhibition of the migration of human endothelial cells: 65%
HUVEC
  inhibition of the tube formation of human endothelial cells: 25%
